Laboratory results reported in patent publication US20190357555A1, “BLUEBERRY FRESH-KEEPING AGENT, PREPARATION METHOD AND APPLICATIONS THEREOF” (ZHEJIANG ACADEMY OF AGRICULTURAL SCIENCES, priority 2018, published 2019).

Test system: Botrytis cinerea
Assay: Filter-paper inhibition zone test against Botrytis cinerea
Type: cell-based
Settings: PDA, 28° C., 6 days; for inhibition zone diameter: filter paper 1 cm soaked 4 hours; for inhibitory effect on Botrytis cinerea (in words): filter paper test
Experimental: Test species and reagents: Botrytis cinerea was isolated from the picked blueberries in the laboratory, and chitosan and ascorbic acid were purchased commercially.
Medium and culture conditions: a PDA medium was used, and cultured at 28° C. for 6 days.
Antibacterial effect test: after Botrytis cinerea was activated with the PDA medium, lawn of Botrytis cinerea was picked up and suspended with sterile water to obtain a bacterial suspension. Scraps of filter paper with a diameter of 1 cm were made from a highly absorbent filter paper by using a puncher, and the scraps of filter paper were subjected to dry heat sterilization and soaked in the Galla chinensis extract, a chitosan solution, and an ascorbic acid solution, respectively, and dried for use after 4 hours soaking. The solid PDA medium was melted, poured into a culture dish, cooled and solidified, then 0.1 mL of the bacterial suspension was added and uniformly coated, and then the scraps of filter paper soaked with the above solutions were attached to the bacteria-containing culture dish, and a scrap of filter paper impregnated with sterile water was used as a control. The culture dish treated above was cultured at 28° C. for 6 days, and the diameters of inhibition zones were measured.

Row | Compound | inhibition zone diameter | inhibitory effect on Botrytis cinerea (in words)
1 | O=C(O)c1cc(O)c(O)c(O)c1 [gallic acid] | 0.00 mm | no inhibitory effect
2 | O=C1O[C@H]([C@@H](O)CO)C(O)=C1O [ascorbic acid] | 0.00 mm | no inhibitory effect
